Results on three molecules are retold here after US8987211B2, “Therapeutic peptides and use thereof against huntington's disease” (Centre National de la Recherche Scientifique (CNRS), priority 2011, dated 2015).

Data set [1] deals with hHtt548aa-128Q protein. Nature of the data set: Axonal transport, fixed larvae (OK6-Gal4; UAS-NPY-GFP). Format: in vivo, Drosophila. On the procedure: (§1) To test the effect of polyQ-hHtt on axonal transport, the fate of vesicles expressing Neuropeptide Y (NPY) labelled with GFP (NPY-GFP) was monitored, either after dissection and fixation of the larvae, or by real-time microscopy in order to monitor vesicular transport in the motor neurons.
hHtt548aa-128Q protein, sequence (P42858 with tags, fused parts or gaps limits assumed): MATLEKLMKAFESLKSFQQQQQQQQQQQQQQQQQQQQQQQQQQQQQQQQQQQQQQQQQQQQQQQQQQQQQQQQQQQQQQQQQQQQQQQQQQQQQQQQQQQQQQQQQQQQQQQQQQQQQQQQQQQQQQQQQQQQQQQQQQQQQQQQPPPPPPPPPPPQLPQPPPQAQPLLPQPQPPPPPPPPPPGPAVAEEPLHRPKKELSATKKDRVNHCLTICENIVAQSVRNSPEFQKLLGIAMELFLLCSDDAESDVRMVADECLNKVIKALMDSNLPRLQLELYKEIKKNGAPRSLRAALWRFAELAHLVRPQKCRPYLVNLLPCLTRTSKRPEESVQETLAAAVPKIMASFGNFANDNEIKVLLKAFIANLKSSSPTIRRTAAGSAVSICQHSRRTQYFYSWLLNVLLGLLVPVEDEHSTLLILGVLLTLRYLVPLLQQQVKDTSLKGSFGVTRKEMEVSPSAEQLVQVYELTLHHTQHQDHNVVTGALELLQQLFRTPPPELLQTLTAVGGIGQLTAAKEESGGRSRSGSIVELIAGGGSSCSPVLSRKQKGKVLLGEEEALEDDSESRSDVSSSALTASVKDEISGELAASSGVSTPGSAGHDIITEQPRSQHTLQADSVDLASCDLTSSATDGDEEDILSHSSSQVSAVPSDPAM
The nervous system of OK6-Gal4 larvae which express vesicles containing NPY-GFP (OK6-Gal4; UAS-NPY-GFP) was dissected and fixed as previously in 3.7% PFA. Incubations with the antibodies and washing are carried out in PBS, 0.3% Triton. Expression of normal Htt^548aa-0Q has no effect on the vesicles which remain numerous and evenly distributed along the axon. Normal Htt, detected by an anti-Htt HU-4C8 antibody (Chemicon, 1:750), lies along the axon and cannot be detected at the neuromuscular junctions (NMJs). Expression of the hHtt^548aa-128Q protein leads to the formation of aggregates along the axons and to abnormal accumulation of the protein at the NMJs. We observe a decrease in the total number of vesicles and their accumulation, especially at the aggregates. In all cases, the vesicles reach the NMJs.

The test system of data set [2] is UAS-SCA1-polyQ or UAS-SCA3-polyQ. Nature of the data set: Eye degeneration in flies expressing other polyQ disease genes. The class given is in vivo, Drosophila. The protocol:
(§2) The eye depigmentation and degeneration phenotypes are analysed in 10-day old females expressing either UAS-hHtt^67aa-98Q or UAS-hHtt^548aa-128Q controlled by the gmr-Gal4 driver, after transfer at 29° C. from the embryogenesis stage (see FIG. 6b, to be compared with the wild flies shown on FIG. 6a). Flies expressing other genes involved in polyQ diseases (UAS-SCA1-polyQ or UAS-SCA3-polyQ) were also analysed (FIG. 6d).

For data set [3], the system named is hHtt548aa-128Q protein. Nature of the data set: Axonal vesicular transport by real-time microscopy in larva motor neurons. The class given is in vivo, Drosophila. The conditions noted are these: segments A3 to A4. The protocol: as §1
For this examination, OK6-Gal4; UAS-NPY-GFP larvae were anaesthetised with ether for 2 minutes and positioned with the ventral side upwards between slide and slip cover in polymerised 1% agarose, for direct visualisation using fluorescence microscopy with a 63× objective, to monitor the movement of the vesicles between segments A3 and A4. A film of 100 photographs is taken every 280 ms. For each film, 20 vesicles were analysed with Image J (manual vesicle tracking plugin developed by F. Cordelières, Institut Curie, Orsay, France). Vesicles with an instantaneous speed of less than 0.01 μm/s are defined as having paused. The mean speed is calculated as being the total distance traveled irrespective of the vesicle direction (anterograde or retrograde) divided by the total estimated time during which the vesicle is monitored. While expression of the hHtt^548aa-128Q protein leads to an increase in the pause time of vesicles and reduces their speed, the presence of pep42 rescues both the vesicle pause time and speed.

In data set [4] the test system is GFP-P1 (first 98 aa with no polyQ domain). Nature of the data set: Co-immunoprecipitation in cotransfected HeLa cells. Format: binding, human. Conditions: Cherry-pep42, GFP-P1, anti-GFP immunoprecipitation. On the procedure: (§3) This assumption was tested by co-immunoprecipitation experiments using HeLa cells cotransfected by GFP-hHtt^171aa-136Q or by GFP-P1 (corresponding to the first 98 aa with no polyQ domain), in the presence of Cherry-pep42. A G/A-agarose protein resin binding an anti-GFP was used to immunoprecipitate the GFP-hHtt^171aa-136Q protein or the GFP-P1 peptide and to co-immunoprecipitate the Cherry-pep42, visualised by an anti-cherry by western blot.
GFP-P1 (first 98 aa with no polyQ domain), sequence (P42858 with tags, fused parts or gaps DEL18-38 limits assumed): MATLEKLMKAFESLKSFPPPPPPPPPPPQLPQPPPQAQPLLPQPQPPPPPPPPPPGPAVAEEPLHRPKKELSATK

Data set [5] concerns GFP-hHtt171aa-136Q. Nature of the data set: Co-immunoprecipitation in cotransfected HeLa cells. Format: binding, human. Conditions: Cherry-pep42, anti-GFP immunoprecipitation, anti-cherry western blot. On the procedure:
as §3

Data set [6] has as its system HA-hHtt171aa-136Q protein. Nature of the data set: polyQ-hHtt aggregation in Drosophila salivary glands (MS1096-Gal4 driver, immunolabelling). The class given is in vivo. The conditions noted are these: third instar larvae, anti-HA immunolabel. From the text:
The pep4 and pep42 peptides identified as inhibitors of polyQ-hHtt aggregation in HeLa cells were cloned using the Gateway technique in Drosophila pUASt expression vectors, allowing the expression of N-terminal 6Myc- or GFP-tagged peptides.
Transgenic flies expressing these peptides were constructed by injecting vectors in Drosophila embryos. The UAS/Gal4 system (Brand and Perrimon, Development 1993) was used to express these peptides at specific times and in specific tissues, in the presence of an HA- (hemagglutinin) tagged UAS-polyQ-hHtt vector.
The MS1096-Gal4 driver was used to express the HA-hHtt^171aa-136Q protein (detected by an anti-HA antibody) in the salivary glands, in the absence or presence of the GFP-pep42 peptide. […] Salivary glands from dissected third instar larvae were immunolabelled. The glands are fixed for 20 minutes in PBS with 3.7% paraformaldehyde (PFA) and 0.1% Triton then washed in PBS/0.1% Triton. The glands were incubated with the antibodies (anti-HA, then Cy3 conjugate antibody) with 1% BSA.

Data set [7] relates to polyQ-hHtt protein, N17 region (the first 17 aa). Description: Interference with nucleation step of polyQ-hHtt aggregation. Details: species or system human. The conditions noted are these: summary statement, no example.
Data set [8] relates to polyQ-hHtt. Description: Viability and survival of adult flies affected by polyQ-hHtt. The class given is in vivo, Drosophila. Conditions: summary statement, no example.
Data set [9] concerns GFP-hHtt171aa-136Q aggregates. Nature of the data set: Quantification of aggregates by filtration, HeLa cells. Format: cell-based, human. The conditions noted are these: cellulose acetate membrane, anti-GFP, FIG. 5B. On the procedure: Protein extracts were obtained according to (Sittler et al., Mol Cell. 1998) with the following modifications: after transfection, the cell pellets are treated with DNase and resuspended in 150 μl 1% SDS and 50 mM DTT in PBS. The samples are boiled for 5 minutes. Two 150 μL aliquots corresponding to independent experiments were filtered together and each point was reproduced 3 times.
GFP-hHtt171aa-136Q aggregates, sequence (P42858 with tags, fused parts or gaps limits assumed): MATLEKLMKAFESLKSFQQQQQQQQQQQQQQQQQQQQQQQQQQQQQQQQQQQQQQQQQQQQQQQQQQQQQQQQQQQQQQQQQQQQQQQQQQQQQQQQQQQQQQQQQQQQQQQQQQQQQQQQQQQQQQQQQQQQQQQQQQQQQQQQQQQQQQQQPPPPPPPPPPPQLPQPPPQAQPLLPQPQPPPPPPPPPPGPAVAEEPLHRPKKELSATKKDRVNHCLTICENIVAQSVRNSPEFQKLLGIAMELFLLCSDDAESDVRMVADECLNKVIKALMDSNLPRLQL
The samples were filtered on a cellulose acetate membrane ([…], Schleicher and Schuell) using a Biorad Dot-blot apparatus. The membranes were then subjected to immunodetection with an antibody, either anti-GFP polyclonal for the HeLa cells (Invitrogen, 1:5000) or anti-HA polyclonal for the salivary glands (SC805, Santa-Cruz, 1:200) in order to visualise the aggregates The aggregates are then detected using a secondary anti-rabbit antibody coupled with HRP (horseradish peroxidase, Jackson 1:50 000). The immunoreagent spots are detected with an […] substrate (ECL, Roche) and the quantifications carried out using Image J (see FIG. 5B).

Data set [10] concerns UAS-hHtt67aa-98Q or UAS-hHtt548aa-128Q. Description: Eye depigmentation and degeneration in flies expressing polyQ-hHtt (gmr-Gal4). The class given is in vivo, Drosophila. The conditions noted are these: 10-day old females, 29° C., polyQ-hHtt (67aa or 548aa). The protocol: as §2
For data set [11], the system named is OK6-Gal4; UAS-NPY-GFP; UAS-hHtt548aa-128Q larvae. Description: Larval locomotion. Format: in vivo, Drosophila. The conditions noted are these: larvae expressing hHtt548aa-128Q.
In data set [12] the test system is GFP-hHtt171aa-136Q (GFP-polyQ-hHtt protein). Nature of the data set: Cotransfection in HeLa cells, polyQ-hHtt aggregation visualised by anti-GFP immunodetection. The class given is cell-based, human. The conditions noted are these: cotransfection of equivalent quantities of vectors, Myc- or Cherry-tagged peptide. On the procedure: Various peptides contained in the 548aa of the human Huntingtin N-terminal fragment have been cloned by Gateway in expression vectors in pcDNA type cultured HeLa cells. Each peptide was tagged either by Myc or by Cherry at its N-terminal end. These various peptides were tested by cotransfection in HeLa cells in the presence of a pcDNA vector expressing a GFP-polyQ-hHtt protein (see FIG. 5). In these experiments, the polyQ-hHtt protein tested corresponded to an hHtt protein covering 171 aa and containing an extended polyQ with a GFP tag at its N-ter end (GFP-hHtt^171aa-136Q). The HeLa cells were cultured in 6-well boxes and transfected by 1.5 μg of total DNA, using JetPei (Qbiogene) reagent. Equivalent quantities of expression vectors (polyQ protein and peptides) are used for the cotransfections. When necessary, pBluescript is used to balance the quantity of DNA. Aggregation of GFP-hHtt^171aa-136Q is visualised by immunodetection with an anti-GFP antibody (see FIG. 5). This protein forms cytoplasmic aggregates (see FIG. 5A).
GFP-hHtt171aa-136Q (GFP-polyQ-hHtt protein), sequence (P42858 with tags, fused parts or gaps limits assumed): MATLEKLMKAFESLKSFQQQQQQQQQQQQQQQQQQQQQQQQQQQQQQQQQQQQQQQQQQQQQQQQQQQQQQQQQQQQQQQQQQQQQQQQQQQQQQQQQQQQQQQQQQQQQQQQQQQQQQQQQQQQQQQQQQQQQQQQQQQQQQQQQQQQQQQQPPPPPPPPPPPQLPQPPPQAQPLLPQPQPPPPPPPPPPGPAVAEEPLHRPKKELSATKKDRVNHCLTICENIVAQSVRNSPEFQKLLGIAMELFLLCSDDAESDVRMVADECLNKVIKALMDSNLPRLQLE

Data set [13] deals with T1, first 17 amino acids before the polyQ domain of the human Htt protein (Homo sapiens, UniProt P42858).
T1 construct: using the first 17 amino acids before the polyQ domain of the human Htt protein; expressed in transfected cells; host or cells: HeLa cells (inferred from 'the same experiments')
Nature of the data set: Co-immunoprecipitation with first 17 amino acids of Htt. The class given is binding. The protocol: as §3

The subject of data set [14] is GFP-polyQ-hHtt (Q136). Description: Activity in HeLa cells, aggregate percentage by GFP signal. The class given is cell-based, human. Conditions: increasing quantity of synthetic peptide added to the culture medium, FIG. 7c. The source says:
HeLa cells are transfected with: • 1—GFP-polyQ-hHtt (Q136), • 2—GFP-polyQ-hHtt co-transfected with a vector expressing Pep42-TAT, or • 3—GFP-polyQ-hHtt in the presence of an increasing quantity of Pep42-TAT synthetic peptide added to the culture medium.
FIG. 7c corresponds to the aggregate percentage identified by the GFP signal related to the polyQ-hHtt chain, in the presence of an increasing quantity of fusion peptide.

“Also recorded” adds a separate entry of the source. No end group written: not given here.

As for “AASSGVSTPGSAGHDIITEQPRS (not fully specified) [pep42, 23 aa peptide contained in pep4, positions 480 to 502 of wild-type hHtt; tested Myc-, Cherry- or GFP-tagged]”, in data set [1], the “accumulation of polyQ-hHtt at the neuromuscular junctions (NMJs)” value is listed as “non-accumulation of polyQ-hHtt at the NMJs”, the “distribution of NPY-GFP vesicles along the axons” value was “better distribution of the vesicles along the axons” and the “size of the polyQ-hHtt aggregates along axons” value is listed as “reduction in the size of the polyQ-hHtt aggregates”. Also, the “eye degeneration phenotype, other polyQ genes” value in data set [2] is recorded as “Only flies expressing polyQ-hHtt (67aa or 548aa) have normal eyes”. In [3], the vesicle mean speed entry is reported as “rescues” and the vesicle pause time result was “rescues”. Also, the “interaction with N-terminal fragment lacking polyQ (co-immunoprecipitation)” value in [4] is recorded as “this interaction does not require the presence of the polyQ domain”. For the same molecule, the “interaction with Huntingtin N-terminal fragment (co-immunoprecipitation)” value in data set [5] is “interacts directly with the N-terminal fragment of Huntingtin”. The “aggregation of polyQ-hHtt in salivary glands” value in data set [6] is reported as “absence of aggregates”. Also, the “first step of aggregation (nucleation)” value in [7] was “interferes with the first step of aggregation”. For the same molecule, the “viability and survival of adult flies” value in [8] is listed as “capable of rescuing”. Moreover, in [9], the “quantification of aggregates by filtration” value is “confirmed by quantification”. Besides, the “eye depigmentation and degeneration phenotype” value in data set [10] is “normal eyes”. In addition, the “mobility of the larvae” value in data set [11] is given as “completely rescued”. Besides, the “aggregation of GFP-hHtt171aa-136Q (polyQ-hHtt) in HeLa cells” value in [12] is recorded as “no longer forms aggregates”. Moreover, in data set [13], the “interaction with first 17 amino acids of Htt (co-immunoprecipitation)” value is on record as “successfully repeated”.
On to “AASSGVSTPGSAGHDIITEQPRSGGYGRKKRRQRRR (Pep42-TAT) [fusion peptide of Pep42 and TAT with 2 glycines inserted between]”, for which the “aggregate percentage identified by the GFP signal” value in [14] is “decreases significantly; also recorded: protective activity of the fusion peptide is conserved”.

B1: QQLFRTPPPELLQTLTAVGGIGQLTAAKEESGGRSRSGSIVELIAGGG SSCSPVLSRKQKGKVLLGEEEALEDDSESRSDVSSSALTASVKDEISGELAAS SGVSTPGSAGHDIITEQPRSQHTLQADSVDLASCDLTSSATDGDEEDILSHSSS QVSAVPSDPAM (protein)
chain: QQLFRTPPPELLQTLTAVGGIGQLTAAKEESGGRSRSGSIVELIAGGGSSCSPVLSRKQKGKVLLGEEEALEDDSESRSDVSSSALTASVKDEISGELAASSGVSTPGSAGHDIITEQPRSQHTLQADSVDLASCDLTSSATDGDEEDILSHSSSQVSAVPSDPAM
modifications: Pep4
With B1, in data set [6], the “aggregation of polyQ-hHtt in salivary glands” value was “absence of aggregates”. Further, in data set [9], the “quantification of aggregates by filtration” value is “confirmed by quantification”. The “aggregation of GFP-hHtt171aa-136Q (polyQ-hHtt) in HeLa cells” value in [12] is given as “proved to be active; also recorded: inhibiting effect of polyQ-hHtt aggregation”.
